{"source": "patent USRE45128E1", "about": "“Cephalotaxane derivatives and their processes of preparation and purification” (IVAX International GmbH, priority 1998, dated 2014)", "key": {"[1]": {"system": "chronic myeloid leukaemias that have become resistant to alpha-interferon", "settings": "patients suffering from chronic myeloid leukaemias resistant to alpha-interferon; cited from earlier work"}, "[2]": {"settings": "continuous intravenous central infusion (CIVI), patients with CML; cited from earlier work"}, "[3]": {"settings": "doses twenty times lower than that for Taxol; cited from earlier work"}, "[4]": {"assay": "Stability of cephalotaxine in acidic solution", "assay_type": "physicochemical", "settings": "several days in solution at pH 1-4 at 20° C. (personal observation)", "procedure": "This alkaloid is relatively insensitive to basic media. On the other hand, several authors describe a certain level of sensitivity to acids and to quaternization of the nitrogen with methyl iodide, leading to a racemization by simultaneous inversion of the 3 asymmetric centres and of the nitrogen [D. J. Abraham, R. D. Rosensten and E. L. McGandy, Tetrahedron Letters, 4085 (1969)]. However, a period of several days in solution at pH 1-4 at 20° C. leaves this structure intact (personal observation)."}}}
{"smiles": "COC(=O)C[C@](O)(CCCC(C)(C)O)C(=O)OC1C(OC)=C[C@]23CCCN2CCc2cc4c(cc2[C@H]13)OCO4", "note": "(stereo partly drawn) [HHT, cephalotaxine, 4-methyl (2R)-2-hydroxy-2-(4-hydroxy-4-methylpentyl)butanedioate (ester)]", "values": [{"measurement": "reinduction of full haematological remissions", "setting": "[1]", "result": 70, "unit": "%"}, {"measurement": "extra-hematologic toxicity", "setting": "[2]", "result": "very mild"}, {"measurement": "daily doses at and above which active", "setting": "[3]", "result": "≥ 2.5 mg/m^2 of body area per 24 hours"}]}
{"smiles": "COC1=C[C@]23CCCN2CCc2cc4c(cc2[C@@H]3C1O)OCO4", "note": "(single isomer, unassigned; (-)) [cephalotaxine, (−)-cephalotaxine]", "values": [{"measurement": "structure after a period in acidic solution", "setting": "[4]", "result": "intact"}]}
{"smiles": "COC(=O)C[C@](O)(CCC(C)(C)O)C(=O)O[C@@H]1C(OC)=C[C@]23CCCN2CCc2cc4c(cc2[C@H]13)OCO4", "note": "[HA, harringtonine]", "values": [{"measurement": "extra-hematologic toxicity", "setting": "[2]", "result": "very mild"}]}
